The results in this text go back to paper PMC5301048, “Selection and early clinical evaluation of the brain‐penetrant 11β‐hydroxysteroid dehydrogenase type 1 (11β‐HSD1) inhibitor UE2343 (Xanamem™)” (British Journal of Pharmacology, 2017).

One data set deals with CYP450 enzymes. Kind of data set: Time-dependent cytochrome P450 inhibition. In kind it is in vitro ADME, human. The note with it: 30 min pre-incubation ± NADPH; in words. Here is the method:
(§1) Testing was performed by Cyprotex Discovery Limited, Cheshire, UK. Six test compound concentrations (0.4, 1, 4, 10, 40 and 100 μM; final DMSO concentration 0.25%, final microsome concentration 0.25 mg·mL^−1) were either pre‐incubated for 30 min in the absence and presence of NADPH or underwent a 0 min pre‐incubation with human liver microsomes. At the end of the pre‐incubation period, the probe substrate for each cytochrome P450 (CYP450) isoform (30 μM) and NADPH (1 mM) were then added (final DMSO concentration 0.3%), and the samples were incubated for 5 min at 37°C. Probe substrates were as follows: 1A2 – phenacetin, 2C9 – diclofenac, 2C19 – mephenytoin, 2D6 – dextromethorphan, 3A4 – midazolam and testosterone. Samples were subjected to LC–MS/MS analysis to determine metabolite concentrations. A decrease in the formation of the metabolite compared with vehicle control was used to calculate an IC50 value (test compound concentration which produces 50% inhibition) for each experimental condition.

The target of the next data set is T1, CYP2D6 (Homo sapiens, UniProt P10635).
T1 construct: tissue Cyprotex Discovery Limited; host or cells: human liver microsomes
Kind of data set: Cytochrome P450 inhibition, CYP2D6. The note with it: human liver microsomes; read-out: CYP450 isoform 2D6 IC50. The data set is classed as in vitro ADME. Here is the method: as §1
Background: Liver microsomes are vesicles of endoplasmic reticulum, rich in cytochrome P450 enzymes.

Data set [1] in a line: Pharmacokinetics in dog (i.v. and p.o.). In kind it is in vivo. The note with it: for bioavailability: p.o. 5 mg·kg^−1 vs i.v. 1 mg·kg^−1, mean ± SD. Here is the method:
Pharmacokinetic studies were carried out at Charles River, UK. For both i.v. and p.o. administration, compounds were prepared in 0.9% saline containing 2% DMSO (v^.v^‐1) and 38% PEG400 (v^.v^‐1). Solutions were passed through 0.22 μm filters prior to administration. Three Beagle dogs each received a single i.v. injection of compound 4 at a dose level of 1 mg·kg^−1. Following a washout period of 1 week, each animal received a single p.o. dose of compound 4 at a dose level of 5 mg·kg^−1.
After a washout period of 6 weeks, the same three dogs each received a single i.v. injection of compound 7 at a dose level of 1 mg·kg^−1. Following a washout period of 1 week, each animal received a single p.o. dose of compound 7 at a dose level of 5 mg·kg^−1.
Plasma samples were obtained up to 24 h post dose administration, and the concentration of each test item in plasma was determined using LC–MS/MS. Pharmacokinetic parameters were derived by non‐compartmental analysis using WinNonLin pharmacokinetic software.

The next data set concerns 11β‐HSD1 in the liver. Kind of data set: Single ascending dose study, urinary THFs/THE ratio. In kind it is in vivo. The note with it: human. Here is the method:
A double‐blind, randomized, placebo‐controlled single ascending dose study was carried out at Simbec Research Ltd, Merthyr Tydfil, UK. Each cohort consisted of six healthy male subjects and two females of non‐child bearing potential. Two male ‘dose leader’ subjects (1 active : 1 placebo) were dosed first in each cohort. The remainder of the cohort (5 active : 1 placebo) were dosed 24 h later. Dose cohorts were 2, 5, 10, 18, 25 and 35 mg. Safety, pharmacokinetic and pharmacodynamic assessments were made at pre‐determined time‐points during each part of the study. Dose escalation was dependent upon satisfactory review of the blinded safety (up to Day 6) and pharmacokinetic (up to 24 h post‐dose) data from the preceding cohort.
Laboratory evaluation of clinical safety parameters was carried out using standard validated methods. Measurement of plasma pharmacodynamic markers [adrenocorticotropic hormone (ACTH), cortisol, 4‐androstenedione, testosterone and dehydroepiandrosterone sulphate (DHEA‐s)] was carried out using commercially available kits. Each method was fully validated prior to analysis. Urinary steroid metabolites were measured according to established methods (Boonen et al., 2013). UE2343 levels in plasma, urine and CSF was determined by LC–MS/MS using fully validated methods.
The data and statistical analysis comply with the recommendations on experimental design and analysis in pharmacology (Curtis et al., 2015). Levels of probability, P < 0.05 were deemed to constitute the threshold for statistical significance. Pharmacokinetic parameters, except Tmax (time of maximum observed drug concentration), are given as mean ± coefficient of variation (CV%). Tmax is given as median ± range. For each of the pharmacodynamic parameters [ACTH, cortisol, adrenal androgens, tetrahydrocortisols (THFs)/tetrahydrocortisone (THE) ratio], the maximum % change from baseline for each subject was subjected to ANOVA. For selected data, an additional covariate factor for the baseline was also included in the ANOVA/analysis of covariance (ANCOVA) model. Associated P‐values <0.05 for each comparison have been presented.
11β‐HSD1 is predominantly located in the liver and adipose tissue. Cortisol (F) and cortisone (E) are cleared from the liver via the enzymes 5α‐reductase and 3α‐HSD to generate tetrahydro (TH) metabolites that are eliminated in the urine. Measurement of urinary TH metabolite ratios thus provides a surrogate measure of 11β‐HSD1 inhibition in the liver (Best and Walker, 1997). Following a single dose of UE2343, there was a statistically significant reduction in the urinary THFs/THE ratio between 0 and 4 h at doses of 18, 25 and 35 mg, equating to a reduction of 58, 55 and 50% respectively (Figure 4A).

In a further data set the target is T2, CYP2C9 (Homo sapiens, UniProt P11712).
T2 construct: tissue Cyprotex Discovery Limited; host or cells: human liver microsomes
Kind of data set: Cytochrome P450 inhibition, CYP2C9. In kind it is in vitro ADME. The note with it: human liver microsomes; read-out: CYP450 isoform 2C9 IC50. Here is the method: as §1

A short description of data set [2]: Aqueous solubility at pH 7.4. In kind it is physicochemical. The note with it: aqueous phosphate buffer, thermodynamic from solid, pH 7.4, room temperature, mean ± SD [n]. Here is the method: The concentration was quantified by HPLC with reference to a standard calibration curve. The solubility was calculated using the peak areas determined by integration of the peak found at the same retention time as the principal peak in the standard injection.

Values after ≈ are worked out from the molar mass of the structure shown.

T1 sequence (P10635 whole entry): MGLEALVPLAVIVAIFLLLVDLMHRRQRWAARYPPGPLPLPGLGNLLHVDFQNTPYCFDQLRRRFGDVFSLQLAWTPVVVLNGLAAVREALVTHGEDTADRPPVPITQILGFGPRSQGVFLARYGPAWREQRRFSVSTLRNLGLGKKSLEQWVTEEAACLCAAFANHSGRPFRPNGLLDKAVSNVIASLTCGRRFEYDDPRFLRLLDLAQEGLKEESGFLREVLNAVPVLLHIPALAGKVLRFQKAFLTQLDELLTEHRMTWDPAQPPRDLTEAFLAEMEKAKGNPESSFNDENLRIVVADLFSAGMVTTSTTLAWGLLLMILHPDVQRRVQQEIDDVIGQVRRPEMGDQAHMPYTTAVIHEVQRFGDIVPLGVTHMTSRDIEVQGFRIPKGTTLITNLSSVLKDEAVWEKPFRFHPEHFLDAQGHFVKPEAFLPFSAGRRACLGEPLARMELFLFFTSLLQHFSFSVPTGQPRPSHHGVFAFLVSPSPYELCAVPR
T2 sequence (P11712 whole entry): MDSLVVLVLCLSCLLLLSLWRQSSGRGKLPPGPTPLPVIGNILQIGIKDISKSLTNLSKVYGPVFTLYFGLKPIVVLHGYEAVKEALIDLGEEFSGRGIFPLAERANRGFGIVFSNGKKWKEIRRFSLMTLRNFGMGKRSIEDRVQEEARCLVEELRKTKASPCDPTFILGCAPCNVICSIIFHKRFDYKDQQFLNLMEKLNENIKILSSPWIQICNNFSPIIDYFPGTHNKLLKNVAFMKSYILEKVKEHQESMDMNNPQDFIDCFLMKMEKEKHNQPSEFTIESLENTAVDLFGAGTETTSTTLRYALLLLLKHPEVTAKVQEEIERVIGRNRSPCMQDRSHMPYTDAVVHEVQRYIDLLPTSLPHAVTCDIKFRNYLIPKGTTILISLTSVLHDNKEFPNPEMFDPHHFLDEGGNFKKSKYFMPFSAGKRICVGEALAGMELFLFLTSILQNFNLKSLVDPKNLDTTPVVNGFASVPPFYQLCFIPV

Regarding `O=C(c1csc(-c2cn[nH]c2)c1)N1C2CCC1CC(O)(c1ncccn1)C2` (stereo not drawn) [compound 4], the “time‐dependent inhibition of CYP450 enzymes” value with CYP450 enzymes is “No time‐dependent inhibition”. The IC50 on CYP2D6 and at CYP2C9 was over 50 µM each time. For the same molecule, the clearance in data set [1] (Beagle, plasma, iv, i.v. 1 mg·kg^−1, mean ± SD) was determined as 4.68 ± 1.12 mL/min/kg. The half-life in data set [1] (Beagle, plasma, mean ± SD) was 167 ± 50.4 min. In addition, the Tmax in data set [1] (Beagle, plasma, oral, 5 mg·kg^−1) turned out to be 1 h. In addition, the bioavailability in data set [1] (Beagle, plasma, oral) was over 100%; in data set [1] (Beagle, plasma, po), 170 ± 40%. Also, the Cmax in data set [1] (Beagle, plasma, po, p.o. 5 mg·kg^−1, mean ± SD) worked out at 4590 ± 546 ng/mL. The “oral exposure relative to compound 7” value in data set [1] (p.o., in words) is reported as “greater than threefold higher”. In addition, the “reduction in the urinary THFs/THE ratio” value in the data set on 11β‐HSD1 in the liver (single dose 10 mg, 4–8 h) stood at 79%; in the data set on 11β‐HSD1 in the liver (single dose 18 mg, 0–4 h), 58%; with 11β‐HSD1 in the liver (single dose 18 mg, 4–8 h) it was 86%; with 11β‐HSD1 in the liver (single dose 25 mg, 0–4 h) it was 55%; in the data set on 11β‐HSD1 in the liver (single dose 25 mg, 4–8 h), 83%; in the data set with 11β‐HSD1 in the liver (single dose 35 mg, 0–4 h), 50%. Further, the “reduction in the urinary THFs/THE ratio” value in the data set with 11β‐HSD1 in the liver (single dose 35 mg, 4–8 h) was 83%. The solubility in data set [2] was determined as 200 µg/mL (≈ 524 µM).

What is called IC50 is the concentration that gives 50% inhibition. As usually defined, the half-life is the time needed for the level to fall by half in the phase considered. A high value points to slow loss. In general, Tmax refers to the time at which the peak concentration occurs. The Cmax is the maximum level reached in the sampled fluid or tissue. As a reminder, the solubility is the concentration that dissolves in the medium under given conditions. A high value points to much dissolved substance.
